Values of other authors, collected in article PMC4224523 (Molecular Pharmaceutics, 2014).

Conditions: general statement in introduction

FC1(F)OC(F)(F)C(F)(F)OC(F)(F)C(F)(F)OC(F)(F)C(F)(F)OC(F)(F)C(F)(F)OC1(F)F [PFCE, Perfluoro-15-crown-5-ether]
solubility in solvents: insoluble in most solvents
